Key:
[1] = given systemically; cited from earlier work
[2] = system: type II cells; test: In vitro uptake of Vitamin E liposomes by freshly isolated type II cells; format: cell-based, male Sprague-Dawley rats; details: result in words
Description: (§1) The in vitro assay employed in examples 1 and 4 was performed by the following general procedure. Freshly isolated type II cells were prepared by the method of Dobbs, et al., Am. Rev. Respir. Sid. (1986) 134:141-145. Briefly, lungs of specific-pathogen-free male Sprague-Dawley rats weighing 160-180 g (Bantin-Kingman, Fremont, CA) were digested with elastase (Cooper Biomedical, Malverne, PA). The minced digest was filtered through a series of nylon meshes and cells were collected by centrifugation. The cells were then plated on IgG-coated plates and the non-type II cells, which were primarily macrophages and lymophocytes, adhered to the plate over a period of one hour at 37° C. in a 10% CO2 /air incubator. The non-adherent cells were removed by gentle panning and were centrifuged at 130×g for 8 minutes. This cell pellet contained 85±1% type II cells. The viability of the cells as determined by erythrosin B exclusion averaged 97±1%.
(§2) 2.5×10^6 freshly isolated type II cells were suspended in 1 ml of MEM-Krebs. The concentration of calcium was […]. […] Zero time values were determined by centrifugation and washing of the cells immediately after addition of liposomes. […] The final cell pellet was resuspended in 0.5 ml of MEM-Krebs; 0.3 ml was analyzed for radioactivity in a Beckman LS-75000 scintillation counter. […]

[3] = system: type II cells; test: In vitro uptake of 6-carboxy-fluorscein liposomes by freshly isolated type II cells; format: cell-based, male Sprague-Dawley rats; details: result in words
Description: as §1, §2

[4] = system: type II cells; details: result in words; cited from earlier work
[5] = In vivo anesthetized rat model, radiolabelled Vitamin E in lung, 24 hour timecourse
Description: (§3) The in vivo assay employed in examples 2 and 3 was performed by the following general procedure. The compositions were administered to the lungs of anesthetized adult Sprague-Dawley rats by endotracheal cannula. At various times after administration of the compositions, the animals were sacrificed by overdosing with anesthetics. The lungs and serum were obtained from each rat for analysis. The lung tissue was minced and extracted with 2:1 chloroform:methanol. The serum was extracted with 2:1 chloroform:methanol. The serum was sampled to get an indication of the amount of pharmaceutically active substance being transported into general circulation.
(§4) Liposomes were prepared as described in section A with the addition of ^3 H-Vitamin E in the lipid mixture before evaporation. The following weight ratios of lipid and Vitamin E were used to prepare the liposomes:
(§5) DPPC:PC:PG:Cholesterol:Vitamin E [drawing 1] The chloroform was evaporated from the lipid/Vitamin E mixture by rotary evaporation. The dried lipid/Vitamin E mixture was rehydrated in MEM-Krebs to a concentration of 87 μg Vitamin E/ml. Alveolar surfactant protein SP-A was added to the liposome mixture to a concentration of 100 μg/ml.
(§6) The liposomes containing Vitamin E prepared as in Example I above were tested in vivo by administration to rats according to the procedure outlined above in section C. […]

[6] = ASP activity (in vivo assay of Robertson, or in vitro surface tension assay); details: in combination as well as independently; result in words
Description: In this assay, the sample to be assessed is administered through an endotracheal tube to fetal rabbits or lambs delivered prematurely by Caesarian section. (These "preemies" lack their own alveolar surfactant, and are supported on a ventilator.) Measurements of lung Compliance, blood gases and ventilator pressure provide indices of activity.
Preliminary assessment of activity may also be made by an in vitro assay, for example that of Kihg, R. J., et al, Am J Physiol (1972) 223:715-726, or that illustrated below of Hawgood, et al, which utilizes a straightforward measurement of surface tension at an air-water interface when the protein is mixed with a phospholipid vesicle preparation. […] The ASP activity can be used to enhance pulmonary administration of pharmaceutically active substances.

[7] = In vivo anesthetized rat model, radiolabelled Vitamin E in serum, 24 hour timecourse
Description: as §3, §4, §5, §6

[8] = In vivo anesthetized rat model, lung incorporation of radiolabelled Vitamin E, 60 minute timecourse; parameters: species or system Sprague-Dawley rats; details: result in words
Description: The serum was extracted with 2:1 chloroform:methanol.
The animals were sacrificed at 0 and 60 minutes and the lungs were tested for incorporation of radiolabelled Vitamin E as described above, with the following results: […]

[9] = 24 hour timecourse, result in words

For `N=C(N)c1ccc(OCCCCCOc2ccc(C(=N)N)cc2)cc1` [Pentamidine isethionate, pentamidine isethionate], the toxicity [1] is given as “quite toxic if given systemically”.

In the case of “alveolar surfactant protein SP-A: relatively high molecular weight (of the order of 32 kD) apoprotein associated with the lung surfactant complex; sequence of FIG. 1”, the “effect on uptake of liposomes containing Vitamin E” value [2] is listed as “stimulates the uptake”, the “effect on uptake of liposomes containing 6-carboxy-fluorscein” value [3] is listed as “stimulates the uptake” and the “cell specificity of effects” value [4] is listed as “seem specific to type II cells and macrophages”. For the same molecule, the “effect on transport to the lung” value [5, 9] was “enhances transport to the lung”, the ASP activity [6] was “show ASP activity in combination as well as independently” and the “effect on serum levels of radiolabelled vitamin E” value [7, 9] was “enhances serum levels of radiolabelled vitamin E”. For the same molecule, the “effect on transport of the liposomes containing Vitamin E to lung tissue” value [8] was “stimulates the transport of the liposomes containing Vitamin E to lung tissue in a rapid fashion”.

In the case of Vitamin E [reference compound], the “amount of radiolabelled Vitamin E in the lung, with vs. without SP-A” value ([5]; rat, in vivo) is reported as “comparable in experimental and control animals” and the “serum radiolabelled Vitamin E, with vs. without SP-A” value ([7]; rat, in vivo) is reported as “The same non-specific effect is also seen in the serum”.

B1: SP-B: the larger of the two hydrophobic proteins, about 18 kD on gels under non-reducing conditions; sequence of FIG. 2 (protein, UniProt P07988 201-279, looked up)
Pulmonary …: FPIPLPYCWLCRALIKRIQAMIPKGALAVAVAQVCRVVPLVAGGICQCLAERYSVILLDTLLGRMLPQLVCRLVLRCSM
modifications: Pulmonary surfactant-associated protein B
With B1 the ASP activity [6] was “show ASP activity in combination as well as independently”.

Reference: US5006343A, “Pulmonary administration of pharmaceutically active substances” (priority 1988, dated 1991)
